Assay: Thermal Stability Test
Type: physicochemical
Details: 45° C. oven for 21 days; compared with ascorbic acid (FIG. 4)
Experimental: FIG. 4 is a diagram of Thermal Stability Test observed at 45° C. oven for 21 days.
Competitive with 3-O-ethyl-ascorbic acid and Azelaic acid, inventive samples have best effect in tyrsoinase inhibition.

- thermal stability: stable than ascorbic acid
Structure (SMILES): CCOC1=C(O)C(=O)O[C@@H]1[C@@H](O)COC(=O)CCCCCCCC(=O)O [Formula (IV), 3-O-ethyl-ascorbyl-6-nonanedioate]
